Measured values reported in patent US20240277841A2, “HUMAN CHIMERIC ANTIGEN RECEPTOR NEUTROPHILS, COMPOSITIONS, KITS AND METHODS OF USE” (Purdue Research Foundation, priority 2020, published 2024).
Entries after “also recorded” stand apart in the source; their conditions may differ.

How the values were obtained:
[1] = test system: glioblastoma; test: Tumor lysis by CAR neutrophils with inhibitors; assay type: cell-based; details: for glioblastoma viability: co-incubation with CAR neutrophils
[2] = test system: TGFβ; test: hPSC differentiation: endothelial-to-hematopoietic transition; assay type: cell-based, human; details: 10 μM from day 4
Protocol: H9 was obtained from WiCell and maintained on Matrigel- or iMatrix 511-coated plates in mTeSR plus medium according to a previously published method. For differentiation, hPSCs were dissociated with 1 mM EDTA and seeded onto iMatrix 511-coated, 24-well plates at a cell density between 10,000 and 80,000 cells/cm^2 in mTeSR plus medium with 5 μM Y27632 for 24 hours (day −1). At day 0, cells were treated with 6 μM CHIR99021 (CHIR) in DMEM medium supplemented with 100 μg/mL ascorbic acid (DMEM/Vc), followed by a medium change with LasR basal medium at day 1, day 2, and day 3 and the addition of 50 ng/ml VEGF to the medium from day 2 to day 4. At day 4, medium was replaced by Stemline II medium (Sigma) supplemented with 10 μM SB431542. After 2 days, SB431542-containing medium was aspirated, and cells were maintained in Stemline II medium with 50 ng/mL SCF and FLT3L. At day 9 and day 12, the medium was aspirated and changed to Stemline II medium containing 50 ng/mL SCF and FLT3L and 25 ng/mL GM-CSF. At day 15, floating cells were gently harvested and used for terminal neutrophil differentiation. The floating cells were cultured in Stemline II medium supplemented with GlutaMAX 100X, ExCyte (0.2%), human G-CSF (150 ng/mL), and Am580 retinoic acid agonist (2.5 μM). After three days, the same medium with all components and cytokines was added to the top of the existing culture. […]

[3] = test system: U87MG cells; test: Neutrophil infiltration of 3D tumor spheroids; assay type: cell-based, human; details: pre-treating neutrophils
Protocol: A 3-D biomimetic GBM model was constructed to mimic an in vivo tumor niche-like microenvironment with a dense, extracellular matrix and heterogeneous tumor cell subtypes.
Neutrophil infiltration of 3D tumor spheroids. The 3D tumor spheroids were obtained using the hanging drop method. Briefly, U87MG cells were suspended in MEM medium with 10% FBS and 0.3% methylcellulose at 2×10^6 cells/mL and deposited onto an inverted lid of 96-well plate as an individual drop using a 20 μL pipettor. The cover lid was then placed back onto the PBS-filled bottom chamber and incubated at 37° C. and 5% CO2. The hanging drops were monitored daily until cell aggregates were formed in ˜5-7 days. Each cell aggregate was transferred to a single well of a 24-well plate for the substream analysis. To assess the tumor penetration capability of CLTX T-CAR neutrophils, 2×10^5 neutrophils/well were added to the wells of 24-well plate and incubated with the tumor spheroids. After co-incubation for 24 hours, the tumor spheroids were fixed and stained for CD45 and DAPI. For the cytotoxicity analysis, the mixture of neutrophils and tumor spheroids were stained with 1 μM Calcein-AM and 1 μM propidium iodide (PI). The stained cells were then imaged using a Leica DMi-8 fluorescent microscope.

[4] = test system: tumor cells; test: Phagocytosis of tumor cells by neutrophils with inhibitor; assay type: cell-based; details: 5 μM
[5] = test system: neutrophil extracellular trap (NET) formation; details: 3 μg/ml or more
[6] = test system: glioblastomas and other tumors; details: cited from earlier work
[7] = test system: invertebrates; details: cited from earlier work
[8] = test system: mammals; details: cited from earlier work
[9] = test system: day 15 myeloid progenitors; test: Myeloid progenitor monocyte/macrophage potential by flow cytometry; assay type: cell-based, human; details: compared to GM-CSF
Protocol: Differentiated cells were gently pipetted and filtered through a 70 or 100 μm strainer sitting on a 50 mL tube. The cells were then pelleted by centrifugation and washed three times with PBS−/− solution containing 1% BSA. The cells were stained with appropriately conjugated antibodies for 25 min at room temperature in the dark and analyzed in an Accuri C6 plus cytometer (Beckton Dickinson) after washing with BSA-containing PBS−/− solution. Flow Jo software was used to process the collected flow data.
Flow cytometry analysis. Differentiated cells were gently pipetted and filtered through a 70 or 100 μm strainer sitting on a 50 mL tube. The cells were then pelleted by centrifugation and washed twice with PBS−/− solution containing 1% bovine serum albumin (BSA). The cells were stained with appropriate conjugated antibodies for 25 min at room temperature in dark, and analyzed in an Accuri C6 plus cytometer (Beckton Dickinson) after washing with BSA-containing PBS−/− solution. FlowJo software was used to process the collected flow data.

## CC(=O)N[C@@H](CS)C(=O)O [N-acetylcysteine]
[1]
  tumor lysis by CAR neutrophils: significantly blocked
  glioblastoma viability: higher viability

## NC(=O)c1ccc(-c2nc(-c3ccc4c(c3)OCO4)c(-c3ccccn3)[nH]2)cc1 [SB431542]
[2]
  endothelial-to-hematopoietic transition (generation of CD45+CD43+ HSPCs): promoted endothelial-to-hematopoietic transition; also recorded: promoted EHT process

## C=C1[C@@H](C)[C@H]2[C@H](Cc3ccccc3)NC(=O)[C@]23[C@H](OC(C)=O)/C=C/[C@@](C)(O)C(=O)[C@@H](C)C/C=C/[C@H]3[C@@H]1O [cytochalasin D]
[3]
  effect on tumor cytotoxicity of CAR-neutrophils: significantly reduced
  effect on tumor-infiltrating activity of CAR-neutrophils: significantly reduced
[4]
  phagocytosis of tumor cells by neutrophils: significantly reduced
[1]
  tumor lysis by CAR neutrophils: significantly blocked
  glioblastoma viability: higher viability

## CC(C)c1cccc(C(C)C)c1O [propofol]
[1]
  tumor lysis by CAR neutrophils: significantly blocked
[5]
  NET formation in neutrophils: significant decrease

## chlorotoxin [CLTX]
[6]
  tumor binding: binds selectively
[7]
  toxicity to invertebrates: highly toxic
[8]
  toxicity to mammals: nontoxic

B1: soluble MMP2: soluble matrix metallopeptidase 2 used to pre-treat neutrophils (protein, UniProt P08253 110-660, looked up)
72 kDa type IV collagenase: YNFFPRKPKWDKNQITYRIIGYTPDLDPETVDDAFARAFQVWSDVTPLRFSRIHDGEADIMINFGRWEHGDGYPFDGKDGLLAHAFAPGTGVGGDSHFDDDELWTLGEGQVVRVKYGNADGEYCKFPFLFNGKEYNSCTDTGRSDGFLWCSTTYNFEKDGKYGFCPHEALFTMGGNAEGQPCKFPFRFQGTSYDSCTTEGRTDGYRWCGTTEDYDRDKKYGFCPETAMSTVGGNSEGAPCVFPFTFLGNKYESCTSAGRSDGKMWCATTANYDDDRKWGFCPDQGYSLFLVAAHEFGHAMGLEHSQDPGALMAPIYTYTKNFRLSQDDIKGIQELYGASPDIDLGTGPTPTLGPVTPEICKQDIVFDGIAQIRGEIFFFKDRFIWRTVTPRDKPMGPLLVATFWPELPEKIDAVYEAPQEEKAVFFAGNEYWIYSASTLERGYPKPLTSLGLPPDVQRVDAAFNWSKNKKTYIFAGDKFWRYNEVKKKMDPGFPKLIADAWNAIPDNLDAVVDLQGGGHSYFFKGAYYLKLENQSLKSVKFGSIKSDWLGC
[3]
  effect on tumor cytotoxicity of CAR-neutrophils: significantly reduced
  effect on tumor-infiltrating activity of CAR-neutrophils: significantly reduced

B2: G-CSF: recombinant human granulocyte colony-stimulating factor (protein, UniProt P09919 31-207, looked up)
Granulocyte …: TPLGPASSLPQSFLLKCLEQVRKIQGDGAALQEKLVSECATYKLCHPEELVLLGHSLGIPWAPLSSCPSQALQLAGCLSQLHSGLFLYQGLLQALEGISPELGPTLDTLQLDVADFATTIWQQMEELGMAPALQPTQGAMPAFASAFQRRAGGVLVASHLQSFLEVSYRVLRHLAQP
[9]
  number of CD14+ monocytes/macrophages: significantly decreased
